Results as given in patent US10350272B2, “Calcitonin analogues for treating diseases and disorders” (KeyBioscience AG, priority 2015, dated 2019).

Experiments:
[1] = test system: liver sections from HFD-fed rats; assay: Oil-Red-O staining of frozen liver sections; assay type: in vivo, rat; settings: HFD rats, 2.5 μg/kg daily
Procedure: At termination of the study of Example 2 the rat livers were embedded using snap freezing in OCT, and then sectioned using a cryomicrotome. Sections were prepared from four groups, KBP-042 in HFD rats, KBP-089 in HFD rats, control HFD rats, and a lean rat comparison.
The sections were stained using Oil-Red-O staining. […] The lipid accumulation in pair-fed KBP-089 liver exceeded KBP-089 treated rats with 66.5% (p<0.001) and was not significant different from vehicle (0.6711). Statistical test performed was one-way ANOVA with Dunnet's post test for multiple comparisons. **p<0.01, ***p<0.001.

obese rats = assay: 16-day treatment study in obese rats (bodyweight, food intake, fat depots, liver lipid analysis); assay type: in vivo, rat; settings: 16 days; for liver arachidonic acid / liver free fatty acids / liver triacylglycerols: extracted liver tissue, 7.5 μg/kg/day
Procedure: Two studies were conducted, and in both studies the obese rats used were generated as follows:
To obtain obese rats, male Sprague-Dawley rats aged 12 weeks were placed on a diet consisting of regular rodent chow and a 60 kcal % high-fat diet (no. D12495; Research Diets) for a total of 12 wk. Following the 12 weeks on high fat diet the rats were randomized into treatment groups based on weight.
The initial study was a 16-day treatment study, in which three groups were studied: Lean (same age but no high fat diet), vehicle (obese control group), and KBP-042 at 7.5 μg/kg/day. Throughout the experiment the bodyweight and food intake were monitored, and at termination liver and fat depots were collected for weighing and potential analysis of triglyceride, free fatty acids and arachidonic acid content.
As the quantification procedure contains several steps an internal standard was added to each sample extraction, which enables the results to be normalized and correcting for any loss. The internal standard was prepared as a solution containing 3.66 mg/mL C19:0 TAG (Sigma-Aldrich, product number: T4632), 2.73 mg/mL C17:0 Phospholipid (PL), 0.4 mg/mL C19:0 FFA (Sigma-Aldrich, product number: N-8263), 0.096 mg/mL C15:0 Diacylglycerol (DAG), 0.06 mg/mL d31-tagged Ceramide, 0.03 mg/mL d7-tagged Sphingosine, 1.036 mg/mL Sitostanol, 0.04 mg/mL d31-tagged Sphingomyelin and 1.596 mg/mL C15:0 Cholesterolester in Chloroform:Methanol 2:1 (v/v).
The method is based on Folch et al. At the time of extraction the samples were portioned at 500 mg individually and transferred to glass tubes, followed by the addition of 10 mL 100 μg/mL butylated hydroxytoluene (BHT) in chloroform:methanol 2:1 (v:v), and placed on ice. Each sample was added 150 μL of the internal standard solution. Homogenization was performed using a rotor-stator submersion blender (IKA Ultra-Turrax T25) with the sample tubes submerged in ice-water. The samples were each homogenized for 3×10 seconds with 50 second intervals, where after the homogenate is transferred to 35 mL screw-cap centrifuge tubes. The aggregate was cleaned in 5 mL chloroform:methanol 2:1 in the original glass tube, which was then transferred quantitatively to the homogenate. The homogenate was added 3 mL (0.24 times the total homogenate volume) of 0.73% (w/v) NaCl in MiliQ H2O and mixed, followed by centrifugation at 2800·g for 5 minutes at 4° C., to create a 2-phase system. The lower phase was transferred to a clean 12.5 mL centrifugation tube. The homogenate (the upper phase) was then added 3 mL chloroform:methanol 85:15 and mixed, followed by another centrifugation step. The new lower phase was then isolated and added to the first extract and dried down under nitrogen in a 40° C. water bath, followed by resolubilization in 300 μL chloroform:methanol 2:1. At this point the lipid extracts can be stored at −20° C.
The lipid extracts were fractionated on amino-propyl columns (Phenomenex Strata NH2, product number: 8B-S009-HBJ). The columns were pre-washed with 2×2 mL chloroform:methanol 23:1 (v:v) and left to dry. During fractionation the columns were not allowed to dry. The columns were primed with 2×1 mL hexane followed by application of the lipid extracts. Fraction 1 containing cholesterol esters was eluted with 3 mL Hexane into a clean tube. Fraction 2 containing TAG was eluted using 3 mL hexane:chloroform:ethylacetate 100:5:5 (v:v:v) into a clean tube. Fraction 3 containing DAG, Cholesterol and Ceramide was eluted using 3×2 mL chloroform:methanol 23:1 (v:v) into a new glass. Fraction 4 containing FFA was eluted using 5 mL 2% acetic acid in diethyl ether into a new glass. Fraction 5 containing PL was eluted using 4 mL methanol into a new glass. Fractions 1 and 2 were dried down under nitrogen at 40° C. and re-dissolved in 300 μL chloroform:methanol 95:5 and stored at −20° C. […]

[2] = KBP-042 7.5 μg/kg/day, vs saline

Substance: AcCSNLSTCVLGKLSQELHKLQTYPRTDVGANAP-NH2 (Ac-CSNLSTCVLGKLSQELHKLQTYPRTDVGANAP-NH2; not fully specified (bridges); cysteine pairing not given here) [KBP-042, calcitonin mimetic with Cys1-Cys7 disulphide bridge]
- decrease of HFD-induced lipid accumulation in liver compared to vehicle (Oil-Red-O) [1]: 78.3%
- fat depots (epididymal visceral fat) (obese rats; KBP-042 7.5 μg/kg/day, at termination): fats depots were reduced
- body weight (obese rats; [2]): marked weight reduction
- food intake (obese rats; [2]): pronounced reduction in food intake early
- liver arachidonic acid (obese rats): reduced the levels
- liver free fatty acids (obese rats): reduced
- liver triacylglycerols (obese rats): reduced triacylglycerols
- liver arachidonic acid (obese rats; listed as KBP-peptide): improvement
- liver free fatty acids (obese rats; listed as KBP-peptide): improvement
- liver triacylglycerols (obese rats; listed as KBP-peptide): improvement
